According to PMC9598407, “Identification of Staphylococcus aureus Penicillin Binding Protein 4 (PBP4) Inhibitors” (Antibiotics, 2022):

Key:
S. aureus PBP2a = S. aureus PBP2a (Staphylococcus aureus, UniProt P07944); experiment: BOCILLIN FL fluorescence polarization assay, PBP2A; type: binding; conditions: 50 µM compound; read-out: Inhibition of BOCILLIN FL labeling of PBP2A
Experimental: A dose response study was conducted (Figure 4B) in which PBP4 was preincubated with 0, 3.125, 6.25, 12.5, 25, or 50 µM of ampicillin, kanamycin, or 9314848.
First, fluorescence polarization assays were performed as previously described, but with minor modifications. Briefly, the indicated amount of the putative PBP4 inhibitor or control antibiotic was incubated with 1 µM recombinant B. subtilis PBP4 or S. aureus PBP2a in potassium phosphate buffer (40 mM K2HPO4 and 10 mM KH2PO4) for 1 h in black 96-well microtiter plates (Corning Life Sciences, Corning, NY, USA). Following incubation, 1 µM (final concentration) BOCILLIN FL penicillin was added, and the mixture was incubated for 30 min. BOCILLIN FL fluorescence polarization was measured at (495 nm excitation and 545 nm emission) in a SpectraMax M5 multimode plate reader (Molecular Devices, San Jose, CA, USA). […] Second, gel electrophoresis and fluorescence detection was used to measure BOCILLIN FL labeling of PBP4 treated with the known PBP4 inhibitor cefoxitin (positive control), kanamycin (negative control) or 9314848 (test compound), as previously described but with minor modifications. […] The percentage BOCILLIN FL binding inhibition was then calculated as the normalized band intensity of antibiotic/compound treated sample as compared to the control sample (PBP4 + BOCILLIN FL in the absence of compound).

recombinant PBP4 = recombinant PBP4 (Bacillus subtilis, UniProt P40750); experiment: Gel electrophoresis BOCILLIN FL labeling of PBP4; type: binding
Chain of recombinant PBP4 (P40750 22-624): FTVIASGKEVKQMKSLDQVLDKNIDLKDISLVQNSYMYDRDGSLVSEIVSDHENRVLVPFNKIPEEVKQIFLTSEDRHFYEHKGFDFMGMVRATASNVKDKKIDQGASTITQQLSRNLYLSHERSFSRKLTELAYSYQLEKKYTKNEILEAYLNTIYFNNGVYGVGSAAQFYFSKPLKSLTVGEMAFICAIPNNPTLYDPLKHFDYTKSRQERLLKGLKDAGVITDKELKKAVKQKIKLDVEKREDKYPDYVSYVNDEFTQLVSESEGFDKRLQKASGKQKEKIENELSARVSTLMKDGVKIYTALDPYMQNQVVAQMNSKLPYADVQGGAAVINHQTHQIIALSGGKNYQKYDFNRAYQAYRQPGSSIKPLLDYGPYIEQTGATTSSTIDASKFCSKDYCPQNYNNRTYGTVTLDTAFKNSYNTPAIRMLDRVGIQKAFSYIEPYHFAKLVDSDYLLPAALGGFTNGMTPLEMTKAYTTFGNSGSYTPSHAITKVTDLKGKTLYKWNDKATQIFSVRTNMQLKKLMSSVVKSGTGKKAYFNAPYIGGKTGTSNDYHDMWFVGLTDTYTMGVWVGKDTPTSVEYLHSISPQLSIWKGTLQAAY
Experimental: A second, yet lower resolution, approach was used to verify the impact of 9314848 on PBP4 substrate binding in which the protein was preincubated with compound or control antibiotics then labeled with the BOCILLIN FL and resulting fluorescent labeled protein was visualized following gel electrophoresis.
The ability of putative PBP4 inhibitors to impact the active site of recombinant PBP4 was assessed using two previously established BOCILLIN-FL Penicillin (Penicillin V conjugated to BODIPY fluorescent dye) binding assays. First, fluorescence polarization assays were performed as previously described, but with minor modifications. Briefly, the indicated amount of the putative PBP4 inhibitor or control antibiotic was incubated with 1 µM recombinant B. subtilis PBP4 or S. aureus PBP2a in potassium phosphate buffer (40 mM K2HPO4 and 10 mM KH2PO4) for 1 h in black 96-well microtiter plates (Corning Life Sciences, Corning, NY, USA). Following incubation, 1 µM (final concentration) BOCILLIN FL penicillin was added, and the mixture was incubated for 30 min. BOCILLIN FL fluorescence polarization was measured at (495 nm excitation and 545 nm emission) in a SpectraMax M5 multimode plate reader (Molecular Devices, San Jose, CA, USA). All assays were repeated at least 8 times, averaged, and values falling outside of 2 standard deviations were considered outliers. The resulting data were plotted as percentage BOCILLIN FL binding inhibition = (T/U) × 100; T = FL polarization of ((PBP4+ BOCILLIN FL) − (PBP4+ BOCILLIN FL + inhibitor compound)), U = FL polarization of ((PBP4 + BOCILLIN FL) − (BOCILLIN FL)). Second, gel electrophoresis and fluorescence detection was used to measure BOCILLIN FL labeling of PBP4 treated with the known PBP4 inhibitor cefoxitin (positive control), kanamycin (negative control) or 9314848 (test compound), as previously described but with minor modifications. Briefly, 1 µM of recombinant PBP4 was mixed with 0, 50, 500, 2000, or 5000 µM 9314848 or control antibiotic in 50 mM phosphate buffer (pH 7.4) and incubated at 37 °C for 30 min. Next 40 μM of BOCILLIN FL was added to the reaction mixture and incubated for an additional 30 min at 37 °C. Reactions were stopped by adding 5× SDS-PAGE gel loading dye, heated at 100 °C for 3 min and separated by electrophoresis in 12% SDS-PAGE (2 h, 120 Volts). BOCILLIN FL labeled PBP4 was imaged at λ = 365 nm using a BioRad Gel Doc EZ Imaging system and the gel was then subsequently stained with Bio-safe Coomassie Brilliant Blue stain (BioRad, Hercules, CA, USA) to measure the amount of protein present in each reaction condition and analyzed using NIH-ImageJ software. The percent BOCILLIN FL binding was calculated by first normalizing the protein present in each reaction condition to that of untreated control and subsequently applying each reaction’s protein normalization factor to each reaction’s fluorescent signal. The percentage BOCILLIN FL binding inhibition was then calculated as the normalized band intensity of antibiotic/compound treated sample as compared to the control sample (PBP4 + BOCILLIN FL in the absence of compound).

Chain of S. aureus PBP2a (P07944 whole entry): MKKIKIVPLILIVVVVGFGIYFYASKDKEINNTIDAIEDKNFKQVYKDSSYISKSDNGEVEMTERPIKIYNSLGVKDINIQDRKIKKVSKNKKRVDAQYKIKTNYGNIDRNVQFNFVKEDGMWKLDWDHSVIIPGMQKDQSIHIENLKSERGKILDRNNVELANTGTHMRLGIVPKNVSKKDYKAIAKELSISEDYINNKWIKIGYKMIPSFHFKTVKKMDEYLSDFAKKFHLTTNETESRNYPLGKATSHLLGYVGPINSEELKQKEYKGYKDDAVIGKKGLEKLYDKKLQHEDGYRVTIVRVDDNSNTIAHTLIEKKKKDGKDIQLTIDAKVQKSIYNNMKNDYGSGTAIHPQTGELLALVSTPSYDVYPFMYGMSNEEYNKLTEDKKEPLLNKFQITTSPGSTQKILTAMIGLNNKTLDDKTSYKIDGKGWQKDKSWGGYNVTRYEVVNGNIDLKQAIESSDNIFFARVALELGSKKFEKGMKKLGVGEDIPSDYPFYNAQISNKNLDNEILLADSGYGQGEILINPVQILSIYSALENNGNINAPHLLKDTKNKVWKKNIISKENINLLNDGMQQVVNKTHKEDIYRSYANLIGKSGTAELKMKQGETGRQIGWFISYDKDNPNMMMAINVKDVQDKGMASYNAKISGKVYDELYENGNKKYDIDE

CC1CCN(C(=O)c2cccc(NC(=O)Nc3ccc(Cl)cc3)c2)CC1 [Compound 9314848]
inhibition at 50 µM (S. aureus PBP2a): 25.8 ± 11.4%
inhibition at 50 µM (recombinant PBP4; 50 µM compound, read-out: PBP4 BOCILLIN FL binding inhibition (gel-based)): 37.5 ± 8.2%
inhibition at 5000 µM (recombinant PBP4; 5000 µM compound, read-out: PBP4 BOCILLIN FL binding inhibition (gel-based)): 72.1 ± 13.1%
PBP4 BOCILLIN FL binding inhibition (gel-based) at low concentration (recombinant PBP4; concentrations below 50 µM): did not reproducibly demonstrate BOCILLIN FL binding inhibition
